Source: patent publication US8426365B2, “Method of treating or preventing tissue deterioration, injury or damage due to congestive heart failure” (Regenerx Biopharmaceuticals, Inc., priority 2005, dated 2013)

Tests used:
[1] = test system: dystrophin deficient (mdx) mice; experiment: VersaMax animal activity monitoring, dystrophin deficient (mdx) mice; assay type: in vivo; details: Mdx treated
Method: (§1) Four groups of mice were treated with thymosin beta 4. Group 1 was normal mice (BL10) that were given placebo (untreated). Group 2 was normal mice that were treated with thymosin beta 4. Group 3 was dystrophin deficient (mdx) mice treated with placebo and Group 4 was mdx mice treated with thymosin beta 4. Mice were treated with 150 micrograms of thymosin beta 4 in 300 microliters of buffer given intraperitoneally twice a week and placebo mice were given 300 microliters of buffer only. The mice exercised on a treadmill at a speed of 12 meters/minute for 30 minutes twice a week. Functional, behavioral and echocardiographic data were obtained at baseline and after 2 months, 4 months and 6 months of treatment.
(§2) Behavioral data was collected using the VersaMax™ animal activity monitoring system. Mice were placed in a monitored box and activity was quantified by different sensors. Data includes horizontal activity, vertical activity and total distance traveled and many other activity parameters were measured. Multiple measurements were made over a 3 day period.

[2] = test system: normal (BL10) mice; experiment: Grip strength meter, normal (BL10) mice; assay type: in vivo; details: BL10 treated
Method: as §1
(§3) Functional data were non-invasive measurements of skeletal muscle function. The muscle strength of the forelimbs and hindlimbs was assessed using a grip strength meter. The animals were allowed to hold onto the meter platform and then were slowly pulled until they lost their grip. The amount of force needed to free the grip was recorded. Multiple measurements were taken for each mouse at each time point. The same protocol was followed for hindlimb muscle strength. Another functional assessment was the Rotarod test. Here, mice were placed on a rotating bar and kept their balance and position as the bar rotated with increasing speed (10 RPM for 1 minute and then increased 0.2 RPM over the next three minutes). The time until the mouse falls was measured. This test was also repeated multiple times.

[3] = test system: dystrophin deficient (mdx) mice; experiment: Grip strength meter, dystrophin deficient (mdx) mice; assay type: in vivo; details: Mdx treated
Method: as §1, §3

[4] = test system: dystrophin deficient (mdx) mice; experiment: Rotarod test, dystrophin deficient (mdx) mice; assay type: in vivo; details: Mdx treated, time until the mouse falls
Method: as §1
as §3, with “Here, mice were placed on a rotating bar and kept their balance and position as the bar rotated with increasing speed (10 RPM for 1 minute and then increased 0.2 RPM over the next three minutes).” left out, “This test was also repeated multiple times.” left out

[5] = test system: mouse MI-induced heart failure model; experiment: Mouse myocardial infarction (MI) heart failure model; assay type: in vivo, C57 black mice; details: 150 μg/mouse i.p. immediately after MI, then every three days for 4 weeks
Method: The procedures used in this study are exactly same as that reported in Nature (432:466-472, 2004). Briefly, C57 black mice, 14 weeks old, were used in this study. Mice were given thymosin β4 (Bachem, Lot #FTHYB40501B) (150 μg/mouse) immediately after myocardial infarction and then every three days for 4 weeks by i.p. injection. The parameters of this study included cardiac morphology and function by echocardiography (echo), invasive cardiac function measurement using Millar catheter, survival rate, and histochemical analysis.

[6] = test system: heart attack in the mouse model; details: administered immediately following a heart attack; Nature 2004; cited from earlier work
[7] = test system: normal (BL10) mice; experiment: VersaMax animal activity monitoring, normal (BL10) mice; assay type: in vivo; details: BL10 treated
Method: as §1, §2

[8] = test system: normal (BL10) mice; experiment: Rotarod test, normal (BL10) mice; assay type: in vivo; details: BL10 treated, time until the mouse falls
Method: as §1
as §3, with “Here, mice were placed on a rotating bar and kept their balance and position as the bar rotated with increasing speed (10 RPM for 1 minute and then increased 0.2 RPM over the next three minutes).” left out, “This test was also repeated multiple times.” left out

[9] = 2 month, 150 micrograms i.p. twice a week

thymosin beta 4 (SDKPDMAEIEKFDKSKLKKTETQEKNPLPSKETIEQEKQAGES; Thymosin beta-4; UniProt P62328 2-44, looked up) [43 amino acid, 4.9 kDa ubiquitous polypeptide originally isolated from the thymus]
Avg horizontal activity [1, 9]: 961 | Avg movement time [1, 9]: 18.9 s | Avg total distance [1, 9]: 167 cm | Avg vertical activity [1, 9]: 8.2 | Avg horizontal activity ([1]; Baseline): 1071 | Avg movement time ([1]; Baseline): 25 s | Avg total distance ([1]; Baseline): 209 cm | Avg vertical activity ([1]; Baseline): 12 | Avg max forelimb strength [2, 9]: 5.73 KGF/kg | Avg max hindlimb strength [2, 9]: 9.18 KGF/kg | Avg max forelimb strength ([2]; Baseline): 5.57 KGF/kg | Avg max hindlimb strength ([2]; Baseline): 7.35 KGF/kg | Avg max forelimb strength [3, 9]: 3.78 KGF/kg | Avg max hindlimb strength [3, 9]: 7.29 KGF/kg | Avg max forelimb strength ([3]; Baseline): 4.46 KGF/kg | Avg max hindlimb strength ([3]; Baseline): 6.29 KGF/kg | Rotorod [4, 9]: 147 | Rotorod ([4]; Baseline): 211 | left ventricular end diastolic pressure (LVEDP) [5]: significantly reduced | left ventricular end diastolic volume [5]: significantly attenuated | left ventricular end systolic volume [5]: significantly attenuated | left ventricular systolic pressure (LVSP) [5]: showed a trend in improvement (i.e., a reduction) | rate of change (velocity) in left ventricular pressure-rise with time (dP/dt) [5]: significantly improved | rate of change (velocity) in left ventricular relaxation [5]: showed a trend in affecting (improving) | pulmonary edema (lung weight) ([5]; listed as TB4): significantly attenuated | thickening of left ventricle / heart muscle (heart weight) ([5]; listed as TB4): significantly attenuated | ejection fraction [6]: able to improve | fractional shortening [6]: able to improve | Avg horizontal activity [7, 9]: 1287 | Avg movement time [7, 9]: 27 s | Avg total distance [7, 9]: 239 cm | Avg vertical activity [7, 9]: 13.1 | Avg horizontal activity ([7]; Baseline): 1761 | Avg movement time ([7]; Baseline): 41 s | Avg total distance ([7]; Baseline): 375 cm | Avg vertical activity ([7]; Baseline): 28 | Rotorod [8, 9]: 191 | Rotorod ([8]; Baseline): 214
